According to patent US7872025B2 (Bridge Pharma, Inc., priority 1999, dated 2011):
“Also recorded” adds a separate entry of the source.

Key:
histamine H-2 = histamine H-2 (Homo sapiens, UniProt P25021); assay: Histamine H-2 antagonism (no method given)
mice = assay: Sedative side effects (physostigmine-induced lethality test); conditions: mouse, in vivo
Procedure: The physostigmine-induced lethality test is being used in the present studies. […] In the present study, test compounds are administered orally 60 minutes prior to physostigmine. The numbers of survivors are counted 30 minutes after physostigmine administration.

inflammation = assay: Anti-inflammatory effects (bronchial eosinophil accumulation; mouse ear croton oil inflammation); conditions: in vivo
Procedure: Inhibition of eosinophil accumulation in lung is determined in sensitized guinea pigs (400 to 600 grams) following intraperitoneal injection of an allergen such as for example PAF (platelet aggregating factor) or bovine serum albumin. At a predetermined time thereafter, the animals are killed with a barbiturate. The trachea is exposed and cannulated. 6×10 ml aliquots of buffered modified Tyrode's solution (composition: NaHCO3 11.9, NaCl 136.9, KCl 2.7, Na2HPO4 0.4, glucose 5.6, EDTA 19.8, gelatin 0.1% w/v; pH 7.4) are introduced successively and aspirated by gentle compression of the lungs. Total fluid recovery normally exceeds 80%. Cell suspensions are concentrated by low speed centrifugation (200 G for 10 min) and the resulting cell pellet is resuspended in 1 ml modified Tyrode's solution. Total cell counts are made by diluting 10 μl of cell suspension in 90 μl of Turk's fluid. Differential cell counts are made from smears fixed in methanol (100%) and stained in Leishman stain. A total of at least 500 cells per smear are counted at 1000 fold magnification, in order to differentiate cell types. Drugs are administered as sustained subcutaneous infusions from an implanted Alza minipump (Alzet 2001 or similar) or by repeated oral or repeated parenteral injections.
Dermal antiinflammatory effects are tested using the mouse ear croton oil inflammation method. This test method is based on Tarrida, J. et al., Meth. Find. Exp. Clin. Pharmacol. (1996) 18(4):233-234 and Blazzo, et al., Prostaglandins (1995) 50:161-168. In short, male mice (25-30 g) are treated with 5 ml/kg of a 2 mg/ml solution of each test compound in physiological saline by intraperitoneal injection. Thirty minutes after injection, croton oil (0, 20 μl of 1.0% croton oil in acetone) or acetone (control) is topically applied to both ears of each mouse. Animals are restrained during croton oil or acetone application and then released into a cage. Before and at predetermined time intervals following croton oil or acetone application, groups of animals are anesthetized with halothane and euthanized by cervical dislocation. […]

histamine H1-receptor = target: T1, histamine H1-receptor (Cavia porcellus, UniProt P31389); assay: Binding to histaminergic receptors (3H-pyrilamine binding); design: species or system guinea pig
T1 construct: from tissue; host or cells: guinea pig cerebellum membranes
T1 sequence (P31389 whole entry): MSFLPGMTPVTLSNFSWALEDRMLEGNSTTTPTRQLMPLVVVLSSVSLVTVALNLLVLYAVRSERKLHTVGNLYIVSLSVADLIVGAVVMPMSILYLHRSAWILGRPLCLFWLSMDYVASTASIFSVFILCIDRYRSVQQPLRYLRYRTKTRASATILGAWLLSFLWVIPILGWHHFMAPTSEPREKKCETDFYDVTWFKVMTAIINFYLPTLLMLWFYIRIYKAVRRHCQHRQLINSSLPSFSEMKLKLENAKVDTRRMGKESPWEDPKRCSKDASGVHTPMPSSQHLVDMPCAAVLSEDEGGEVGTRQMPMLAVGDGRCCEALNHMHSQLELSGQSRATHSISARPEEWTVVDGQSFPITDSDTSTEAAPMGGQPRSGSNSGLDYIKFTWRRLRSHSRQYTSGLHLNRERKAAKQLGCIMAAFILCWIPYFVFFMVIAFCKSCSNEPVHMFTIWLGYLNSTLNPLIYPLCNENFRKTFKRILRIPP
Procedure: Briefly, membranes from guinea pig cerebellum are incubated with ^3H-pyrilamine and varying concentrations of the test compound(s). The specific binding of the radioactive ligand to the receptor is defined as the difference between total binding and nonspecific binding, determined in the presence of an excess of unlabelled ligand. The results are expressed as percentage of specific binding in the presence of compounds. […] These parameters are obtained by Hill equation curve fitting using Sigmaplot™ software.

[1] = tested on: bronchial or other smooth muscle tissues; assay: Antihistaminic effects in vitro (histamine contractions of smooth muscle strips); design: species or system guinea pigs; conditions: listed as racemic norketotifen
Procedure: Strips of bronchial or other smooth muscle tissues are removed from the body of male guinea pigs weighing 400-600 g. The tissues are suspended in an oxygenated buffer of the composition (mM): NaCl, 133; KCl, 4.7; CaCl2, 2.5; MgSO4, 0.6; NaH2PO4, 1.3; NaHCO3, 16.3; and glucose, 7.7, or in a solution of a similar composition. The solution is maintained at 37.5 C. Contractions are recorded with isometric transducers (Model FT-10) on a Grass polygraph.
In order to assess the viability of each tissue and to serve as a frame of reference, contractions of each strip of tissue are recorded initially in response to exposure to an oxygenated buffer in which the NaCl is replaced by KCl to yield a concentration of 137.7 mM KCl. This is followed by return to the standard oxygenated buffer, and then by exposures to progressively increasing concentrations of histamine, with separate exposures to each concentration only until the peak response has been recorded. Then, leaving one tissue strip untreated, the remaining strips each are exposed for a predetermined time interval to one concentration of an antagonist. Finally, the responses to increasing concentrations of histamine followed by exposure to 137.7 mM KCl are recorded a second time.

Sequence of histamine H-2 (P25021 whole entry): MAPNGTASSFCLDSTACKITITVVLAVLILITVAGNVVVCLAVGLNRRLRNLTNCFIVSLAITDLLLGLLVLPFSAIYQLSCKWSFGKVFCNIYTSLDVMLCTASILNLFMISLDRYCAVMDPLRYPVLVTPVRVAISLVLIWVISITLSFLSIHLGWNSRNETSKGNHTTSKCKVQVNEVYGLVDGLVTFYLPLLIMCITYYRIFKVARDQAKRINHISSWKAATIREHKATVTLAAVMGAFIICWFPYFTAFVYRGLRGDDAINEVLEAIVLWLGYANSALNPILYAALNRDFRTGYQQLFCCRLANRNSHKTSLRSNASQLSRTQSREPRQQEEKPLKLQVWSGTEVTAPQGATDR

SMILES | histamine H-2 antagonism (histamine H-2) | sedative side effects (mice) | anti-inflammatory effect (inflammation) | histamine H-1 receptor antagonism / blockade (histamine H1-receptor) | antihistaminic effects [1]
CN1CCC(=C2c3ccccc3CC(=O)c3sccc32)CC1 (racemic) [ketotifen, 4-(1-methyl-4-piperidyline)-4H-benzo(4,5) cyclohepta-(1,2-b) thiophene-10-one, reference compound] | varying degree of histamine H-2 antagonism | severe and dose-limiting sedative activity | – | – | –
O=C1Cc2ccccc2C(=C2CCNCC2)c2ccsc21 (racemic) [nor-ketotifen] | varying degree of histamine H-2 antagonism | little or no sedative side effect | potent anti-inflammatory and anti-histaminic properties | histamine H-1 antagonists | qualitatively similar to the antihistaminic effects of racemic ketotifen; also recorded: potent anti-inflammatory and anti-histaminic properties
CN1CCC(=C2c3ccccc3CC(O)c3sccc32)CC1 (stereo not drawn) [10-hydroxy-ketotifen] | – | significantly less sedation than ketotifen | inhibit inflammation | block histamine H-1 receptors | –
OC1Cc2ccccc2C(=C2CCNCC2)c2ccsc21 (stereo not drawn) [10-hydroxy-norketotifen] | – | significantly less sedation than ketotifen | inhibit inflammation | block histamine H-1 receptors | –
CN1CCC(=C2c3ccccc3CC(=O)c3sccc32)CC1 [R(+)-ketotifen] | – | almost all the sedative side effects were found to reside in R(+)-ketotifen | – | – | –
CN1CCC(=C2c3ccccc3CC(=O)c3sccc32)CC1 [S-isomer of ketotifen] | – | not causing the severe sedative side effects of ketotifen | – | – | –
